We go through one molecule from patent publication US20260055081A1, “Metal Chelator Compounds, Coordination Complexes, and Methods of Preparation and Use Thereof” (University of Puerto Rico, priority 2022, published 2026).

For orientation: LC50 means the concentration that kills 50% of the test population. The low end stands for greater toxicity, the high end for lower toxicity.

In assay [1] the test system is NCI 60 human tumor cell lines. The assay can be described thus: NCI 60 cancer cell line screen, all cell lines tested. In kind it is cell-based. The following applies: 48 h. The protocol:
National Cancer Institute Cancer Cell Line (NCI 60) Screen of DefNEtTrp. Details of the methodology for NCI 60 cell line screening are described at http://dtp.nci.nih.gov/branches/btb/ivclsp.html. The cells, grown in supplemented RPMI-1640 medium, are seeded in 96 well plates at an appropriate density and incubated for 24 h. The test compounds are dissolved in DMSO and incubated with cells at a single dose of 10.0 μM for 48 h. The assay is terminated by addition of cold trichloroacetic acid, and the cells are fixed and stained with sulforhodamine B. Bound stain is solubilized, and the absorbance is read on an automated plate reader. […] Using the seven absorbance measurements [time zero, […], control growth, (C), and test growth in the presence of drug at the five concentration levels (Tf)], the percentage growth was calculated at each of the drug concentrations levels as: [(Tf−Ti)/(C−Ti)]×100 for concentrations for which Tf≥Ti and [(Tf−Ti)/Ti]×100 for concentrations for which Tf<Ti. Three-dose response parameters (GI50, TGI, and LC50) were calculated for each of the experimental agents in five dose assay. Growth inhibition of 50% (GI50) was calculated from 100×[(Tf−Ti)/(C−Ti)]=50, which was the drug concentration resulting in a 50% reduction in the net protein increase (as measured by sulforhodamine B, SRB staining) in control cells during the drug incubation. The total growth inhibition (TGI) was calculated from Tf=Ti, which was the drug concentration resulting in total growth inhibition and signified the cytostatic effect. The 50% cellular death (LC50) was calculated from 100×[(Tf−Ti)/Ti]=−50, indicating a net loss of cells following treatment which indicated the concentration of drug resulting in a 50% reduction in the measured protein at the end of the drug treatment as compared to that at the beginning. […] Log GI50, log TGI, and log LC50 are the logarithm molar concentrations producing 50% growth inhibition (GI50), a total growth inhibition (TGI), and a 50% cellular death (LC50), respectively.

The subject of the next assay is Colon cancer cell lines. Nature of the assay: NCI 60 five-dose screen, colon panel. In kind it is cell-based, human. The settings on record: 48 h. The method, then:
(§1) National Cancer Institute Cancer Cell Line (NCI 60) Screen of DefNEtTrp. Details of the methodology for NCI 60 cell line screening are described at http://dtp.nci.nih.gov/branches/btb/ivclsp.html. The cells, grown in supplemented RPMI-1640 medium, are seeded in 96 well plates at an appropriate density and incubated for 24 h. The test compounds are dissolved in DMSO and incubated with cells at a single dose of 10.0 μM for 48 h. The assay is terminated by addition of cold trichloroacetic acid, and the cells are fixed and stained with sulforhodamine B. Bound stain is solubilized, and the absorbance is read on an automated plate reader. […] Using the seven absorbance measurements [time zero, […], control growth, (C), and test growth in the presence of drug at the five concentration levels (Tf)], the percentage growth was calculated at each of the drug concentrations levels as: [(Tf−Ti)/(C−Ti)]×100 for concentrations for which Tf≥Ti and [(Tf−Ti)/Ti]×100 for concentrations for which Tf<Ti. Three-dose response parameters (GI50, TGI, and LC50) were calculated for each of the experimental agents in five dose assay. […] The total growth inhibition (TGI) was calculated from Tf=Ti, which was the drug concentration resulting in total growth inhibition and signified the cytostatic effect. […]

Assay [2] has as its system Ovarian cancer cell lines. The assay can be described thus: NCI 60 five-dose screen, ovarian panel. It is filed as cell-based, human. The settings on record: 48 h. The method, then:
as §1

The subject of the next assay is Breast cancer cell lines. Nature of the assay: NCI 60 five-dose screen, breast panel. It is filed as cell-based, human. The settings on record: 48 h. The protocol: as §1
Assay [3] deals with Jurkat cells. Nature of the assay: Ferroptosis mechanistic cell viability study (ferrostatin-1). The settings on record: 10 μM Fer-1 pretreatment, 2 μM DefNEtTrp, 72 h. It is filed as cell-based, human. The method, then: Ferroptosis mechanistic cell viability study. Jurkat cells were seeded into 96-well plates, as indicated in the MTT assay described above The cells were treated with 10 μM of the ferroptosis inhibitor ferrostatin-1 (Fer-1). Another group of cells were treated with media alone. After 1 h incubation, half of the cells supplemented with Fer-1 were treated with 2 μM DefNEtTrp or 25 μM [Fe(citrate)2]^5−, as positive control, while the other half was treated with media alone. The final percentage of DMF was maintained at 0.5% (v/v). The MTT assay was performed with these samples (n=6). A student t-test was performed to evaluate the difference in the viability of cells treated with DefNEtTrp or [Fe(citrate)2]^5− and supplemented with and without Fer-1.

Assay [4] has as its system Jurkat cells. The assay can be described thus: Co-treatment with Q-VD-OPh and Fer-1, cell viability. It is filed as cell-based, human. The following applies: 10 μM Fer-1/Q-VD-OPh, treatment with 2 μM, 72 h. The method, then:
FIG. 23 is a bar graph showing observed changes in the % cell viability of Jurkat cells treated with 10 μM Ferrastatin-1/Q-VD-OPh (Fer-1/Q-V-O) in combination and then treated for 72 h with 2 μM DefNetTrp (DNT), or media alone. * p-value <0.01 vs the corresponding non-treated Fer-1/Q-V-O group.

Where [5] appears, read: cell lines in which TGI was observed.
The mark [6] stands for this setting: Homo sapiens, read-out: GI50 (calculated average).

With `Nc1cccnc1/C=N/NC(=S)NCCNC(=O)c1ccc(-n2nc(-c3ccccc3O)nc2-c2ccccc2O)cc1` [DefNEtTrp, deferasirox nitrogen ethyl triapine], the GI50 in assay [1] (Homo sapiens, five-dose assay, average over all cell lines, read-out: average GI50 concentration, all cell lines) is 1200 nM; in the assay with Colon cancer cell lines (setting [6]) it was 870 nM; in assay [2] (setting [6]) it was 1120 nM; in the assay on Breast cancer cell lines (setting [6]), 450 nM. The LC50 in assay [1] (Homo sapiens, five-dose assay, average over cell lines with 50% cell death) worked out at 38900 nM. Further, the “share of cell lines tested with total cell growth inhibition” value in assay [1] (five-dose assay) came out at 77%. In assay [1] (five-dose assay), the “share of tested cell lines with 50% cell death” value was determined as 14%. The “average TGI concentration” value in assay [1] (five-dose assay, average over cell lines in which TGI was observed) turned out to be 8500 nM. The “antiproliferative activity in one-dose test” value in assay [1] (one-dose test of 10 μM) was “very promising broad spectrum antiproliferative activity”. The results for the “TGI (calculated average)” value (with Colon cancer cell lines (setting [5]); in assay [2] (setting [5]); in the assay with Breast cancer cell lines (setting [5])) were 12220 nM, 9820 nM and 4840 nM, respectively. Besides, in the assay with Jurkat cells [3], the “change in cell viability of cells pretreated with Fer-1” value is recorded as “two-fold increase in the cell viability”. The “change in viability with equimolar Q-VD-OPh and Fer-1 co-treatment” value in the assay on Jurkat cells [4] is recorded as “three-fold increase in the viability”.
